Holding throughout (assay): Antibacterial activity, agar dilution method (MIC)
Holding throughout (format): cell-based
For orientation: In agar dilution the substance is mixed into plates at graded concentrations.

The subject of test [1] is Bacillus subtilis PCI 219. The conditions noted are these: PCI219, 10^6 CFU/ml, 37° C., 18-20 hours, pH 7.0. Here is the method: (§1) The above-mentioned minimum inhibitory concentration (MIC; μg/ml) values were determined by the agar dilution method using the medium mentioned below. The inoculum size was one loopful with a viable count of 10^6 CFU/ml. Incubation was performed at 37° C. for 18-20 hours. Medium: glucose 3%, sodium glutamate 0.5%, K2 HPO4 0.05%, MgSO4.7H2 O 0.05%, KCl 0.05%, yeast extract (Difco) 0.05%, Casamino acid 0.02%, agar 1.5% (pH 7.0).

Test [2] relates to Escherichia coli NIHJ JC-2. The conditions noted are these: NIHJJC2, 10^6 CFU/ml, 37° C., 18-20 hours, pH 7.0. The procedure: as §1
For test [3], the system named is Proteus morganii IFO 3168. Particulars: Morganella morganii, IFO3168, 10^6 CFU/ml, 37° C., 18-20 hours, pH 7.0. The procedure: as §1
The test system of test [4] is Proteus vulgaris IFO 3045. The conditions noted are these: IFO3045, 10^6 CFU/ml, 37° C., 18-20 hours, pH 7.0. Here is the method:
as §1

The test system of test [5] is Proteus vulgaris IFO 3988. The conditions noted are these: IFO3988, 10^6 CFU/ml, 37° C., 18-20 hours, pH 7.0. Here is the method: as §1

Experimental findings from patent US4436918A, “Method for production of peptide, and its intermediate” (Takeda Chemical Industries, Ltd., priority 1981, dated 1984) are described below.

A word on the MIC: it is the least concentration at which growth counts as inhibited. A low value points to a more susceptible organism.

Structures are written as SMILES. ≈ marks a conversion by molar mass, not a printed value.

`C[C@@H](N)C(=O)NC(C(=O)O)C1CC(O)NC1=O` (stereo partly drawn) [D-Alanyl-2-(5-hydroxy-2-oxopyrrolidin-3-yl)glycine]: the MIC in test [1] is 6 to 24 µg/mL (≈ 24.5 to 97.9 µM); in test [2] it was 3 to 12 µg/mL (≈ 12.2 to 48.9 µM); in test [3] it was 3 to 12 µg/mL (≈ 12.2 to 48.9 µM); in test [4], 0.6 to 2.4 µg/mL (≈ 2.45 to 9.79 µM); in test [5] it was 1.6 to 4.8 µg/mL (≈ 6.52 to 19.6 µM).
